Laboratory results from US20180177725A1, “CELL MEMBRANE-FORMED NANOSCALE VESICLES AND METHODS OF USING THEREOF” (WASHINGTON STATE UNIVERSITY, priority 2015, published 2018).

Test system: LPS-induced acute lung inflammation
Experiment: Mouse acute lung inflammatory (ALI) model, LPS-induced
Format: in vivo
Details: TPCA-1 0.33 mg/kg i.v.
Procedure: Mouse acute lung inflammatory (ALI) model: CD1 male mice were utilized. ALI was induced by intracheal spray of LPS (10 mg/kg) using a Model ICA-IC-M MicroSprayer Aerosolizer (Pen-Century). Approximately 3 hours after LPS was challenged, mice were intravenously injected with HBSS, free drug (TPCA-1), TPCA-1 loaded erythrocyte vesicles and TPCA-1 loaded HL 60 vesicles at two doses of 0.33 and 1 mg/ kg.
Bronchoalveolar lavage fluid collection and cell count: At 13 hours post-LPS administration, mice were anesthetized with an i.p. injection of ketamine and xylazine mixture. The trachea was cannulated, and 1 ml HBSS was infused intratracheally and withdrawn to obtain lavage fluid. This procedure was repeated twice. […] The total cell number was determined with a hemocytometer. […] The percentages of neutrophils were determined after counting 200 cells in randomly selected fields.
Cytokine generation: Cytokine levels in the BAL were determined using commercial ELISA kits for TNF-α and IL-6 (Biolegend, San Diego, Calif.) according to the manufacturer's instructions. […]
Measurement of lung vascular permeability: The permeability was evaluated via the larvage protein content change. The total protein concentrations were determined using a BCA protein assay kit (Thermo scientific, Rockford, Ill.).

In the case of `NC(=O)Nc1sc(-c2ccc(F)cc2)cc1C(N)=O` [TPCA-1, 2-[(Aminocarbonyl)amino]-5-(4-fluorophenyl)-3-thiophenecarboxamide], the “therapeutic benefit on neutrophil infiltration at low dose” value is reported as “rarely showed this benefit”.
